Columns and labels:
[1] = biological target: hBChE from freshly collected human plasma (Homo sapiens, UniProt P06276); assay: Ex vivo anticholinesterase activity; assay type: biochemical
[2] = biological target: hAChE from freshly collected human erythrocytes (Homo sapiens, UniProt P22303); assay: Ex vivo anticholinesterase activity; assay type: biochemical
[3] = human plasma, following a Posiphen 40 mg dose; cited from earlier work

hBChE from freshly collected human plasma, sequence (P06276 29-602): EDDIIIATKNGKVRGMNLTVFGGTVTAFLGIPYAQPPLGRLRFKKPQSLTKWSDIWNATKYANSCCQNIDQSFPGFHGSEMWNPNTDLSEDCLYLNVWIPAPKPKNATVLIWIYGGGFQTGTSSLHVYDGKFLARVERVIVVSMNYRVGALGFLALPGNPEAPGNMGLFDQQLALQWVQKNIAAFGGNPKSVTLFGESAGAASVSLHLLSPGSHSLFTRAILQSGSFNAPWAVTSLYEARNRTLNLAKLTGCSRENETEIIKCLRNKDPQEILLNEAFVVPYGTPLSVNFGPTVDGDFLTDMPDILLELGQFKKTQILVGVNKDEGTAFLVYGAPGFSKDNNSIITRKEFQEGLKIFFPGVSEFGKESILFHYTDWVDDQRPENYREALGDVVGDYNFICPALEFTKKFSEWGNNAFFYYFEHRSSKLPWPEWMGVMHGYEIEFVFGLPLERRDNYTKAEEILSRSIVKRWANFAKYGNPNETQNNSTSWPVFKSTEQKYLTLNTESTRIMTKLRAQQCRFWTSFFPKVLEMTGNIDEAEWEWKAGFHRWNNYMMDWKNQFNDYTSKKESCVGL
hAChE from freshly collected human erythrocytes, sequence (P22303 32-617 isoform P22303-2 limits assumed): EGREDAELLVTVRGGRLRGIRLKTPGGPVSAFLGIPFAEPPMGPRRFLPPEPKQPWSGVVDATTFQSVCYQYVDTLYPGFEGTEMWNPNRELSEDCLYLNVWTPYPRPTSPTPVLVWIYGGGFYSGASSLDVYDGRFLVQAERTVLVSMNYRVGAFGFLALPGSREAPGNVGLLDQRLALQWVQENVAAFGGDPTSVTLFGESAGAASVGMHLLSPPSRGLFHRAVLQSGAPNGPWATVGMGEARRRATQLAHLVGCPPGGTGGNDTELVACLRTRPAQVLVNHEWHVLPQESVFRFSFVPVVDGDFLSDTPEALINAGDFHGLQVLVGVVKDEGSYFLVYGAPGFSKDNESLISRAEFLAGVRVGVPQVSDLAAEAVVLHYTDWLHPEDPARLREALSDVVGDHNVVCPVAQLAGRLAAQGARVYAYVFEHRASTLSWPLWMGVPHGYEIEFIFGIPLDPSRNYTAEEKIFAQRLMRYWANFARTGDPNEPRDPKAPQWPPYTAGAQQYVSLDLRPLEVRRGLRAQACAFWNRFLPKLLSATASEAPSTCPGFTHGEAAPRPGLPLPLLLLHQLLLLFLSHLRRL

Row | Structure (SMILES) | IC50 [1] [µM] | IC50 [2] [µM] | AChE inhibitory action (in words) ([2]; wet lab evaluation, human AChE) | plasma concentration CMax [3] [ng/mL]
1 | CN1CC[C@@]2(C)c3cc(OC(=O)Nc4ccccc4)ccc3N(C)[C@@H]12 [Phenserine, reference compound] | 1.38 ± 0.24 | – | – | –
2 | CN1CC[C@]2(C)c3cc(OC(=O)Nc4ccccc4)ccc3N(C)[C@H]12 [Posiphen] | > 10 | > 10 | lacks AChE inhibitory action | 118.5
